Source: ChEMBL document CHEMBL1129090, “Potent fluoromethyl ketone inhibitors of recombinant human calpain I” (Bioorg Med Chem Lett, 1996)
*1 amine or outer side, *2 acyl side, *3 side chain or, on linkers, in order; H or OH if unused. Where a SMILES comes first, the peptide text is derived from it. [ ]: non-standard residue; d: D form. The star is where a group is joined. ξ: configuration not given here. ξF = NC(Cc1ccccc1)C(=O)O; Cbz = O=C(OCc1ccccc1)*; Boc = CC(C)(C)OC(=O)*; CO = O=C([*:1])[*:2]; NHBn = c1ccc(CN*)cc1; ξAbu = CCC(N)C(=O)O; CH2F = FC*

Biological target: T1, Calpain-1 catalytic subunit (Homo sapiens) (UniProt P07384)
T1 sequence (whole entry): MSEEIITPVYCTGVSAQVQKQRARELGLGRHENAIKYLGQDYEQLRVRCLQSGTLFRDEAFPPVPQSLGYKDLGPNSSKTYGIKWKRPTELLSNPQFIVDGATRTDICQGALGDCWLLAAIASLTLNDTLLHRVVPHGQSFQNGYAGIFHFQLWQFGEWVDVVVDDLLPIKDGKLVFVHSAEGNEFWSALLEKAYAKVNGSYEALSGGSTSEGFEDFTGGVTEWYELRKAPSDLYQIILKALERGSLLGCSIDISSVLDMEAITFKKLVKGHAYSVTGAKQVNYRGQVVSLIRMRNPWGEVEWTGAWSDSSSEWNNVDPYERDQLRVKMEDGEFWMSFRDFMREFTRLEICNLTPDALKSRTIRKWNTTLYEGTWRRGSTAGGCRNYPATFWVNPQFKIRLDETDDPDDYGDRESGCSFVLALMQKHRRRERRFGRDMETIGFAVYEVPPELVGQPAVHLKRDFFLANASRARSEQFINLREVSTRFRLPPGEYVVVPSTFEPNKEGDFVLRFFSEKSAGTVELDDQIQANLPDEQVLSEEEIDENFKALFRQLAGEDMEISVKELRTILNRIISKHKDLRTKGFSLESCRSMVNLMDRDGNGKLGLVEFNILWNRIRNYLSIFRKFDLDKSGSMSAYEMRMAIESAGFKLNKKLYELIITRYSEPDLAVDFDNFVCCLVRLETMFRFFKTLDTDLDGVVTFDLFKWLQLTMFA
Experiment: Compound was tested for inhibitory activity against recombinant human Calpain 1

SMILES	K obs / 1
CC(C)C[C@H](NC(=O)[C@H]1O[C@@H]1C(=O)O)C(=O)NCCCCN=C(N)N	4700 M⁻¹ s⁻¹
CC(C)C[C@H](NC(=O)OCc1ccccc1)C(=O)NC(Cc1ccccc1)C(=O)CF (stereo partly drawn) (Cbz-Leu-[ξF]-CH2F)	136000 M⁻¹ s⁻¹
CC(C)C[C@H](NC(=O)NCc1ccccc1)C(=O)NC(Cc1ccccc1)C(=O)CF (stereo partly specified) ({NHBn-CO}-Leu-[ξF]-CH2F)	67200 M⁻¹ s⁻¹

The next lines start with the values.

K obs / 1	SMILES
67200 M⁻¹ s⁻¹	CC(C)C[C@H](NS(=O)(=O)N1CCOCC1)C(=O)NC(Cc1ccccc1)C(=O)CF (stereo partly specified)
68600 M⁻¹ s⁻¹	CC(C)C[C@H](NC(=O)OC(C)(C)C)C(=O)NC(Cc1ccccc1)C(=O)CF (stereo partly drawn) (Boc-Leu-[ξF]-CH2F)
24200 M⁻¹ s⁻¹	CCC(NC(=O)[C@H](CC(C)C)NC(=O)OCc1ccccc1)C(=O)CF (stereo partly drawn) (Cbz-Leu-[ξAbu]-CH2F)
